“Also recorded” adds a separate entry of the source.
Legend:
[1] = test system: type III collagen, tenascin and fibronectin; assay: Western blot of TGF-β1 activated rabbit corneal keratocytes: type III collagen, tenascin, fibronectin; assay type: cell-based; conditions: TGF-β1 (10 ng/ml)+1% FBS, two days, compared to controls with no treatment
Protocol: (§1) FIGS. 19A and 19B. Western blot analyses: Rabbit corneal keratocytes were isolated and cultured in serum-free DMEM/F12 into 60 mm tissue culture dishes. After 24 hrs of incubation, the media were replaced with DMEM/F12 medium containing TGF-β1(10 ng/ml)+1% FBS without (control) or with EP or EP-derivatives for two days. The cells were extracted in RIPA buffer and the extracts containing 5 μg of total proteins were loaded per lane for Western blot analysis.
(§2) Keratocytes or fibroblasts grown under different culture conditions were extracted in RIPA buffer (9.1 mM dibasic sodium phosphate, 1.7 mM monobasic sodium phosphate, 150 mM NaCl, pH, 7.4, 1% Nonidet P-40, 0.5% sodium deoxycholate, 0.1% SDS, 0.03 TIU/mL aprotinin, 1 mM sodium orthovanadate, and 100 μg/mL phenylmethylsulfonyl fluoride (PMSF)). Aliquots of cell extracts containing 50 or 100 μg protein were subjected to SDS-PAGE. Protein bands on SDS-PAGE were electrophoretically transferred to IMMOBILON-P™ membrane (Millipore Corp., Bedford, Mass.), stained with 0.1% Coomassie blue 250 in 40% methanol/1% acetic acid for 1 minute, destained one to three times with 50% methanol/1% acetic acid, scanned for densitometric comparisons of relative concentrations of proteins per lane, destained with methanol, and subjected to Western blot analysis. Immunoreactive bands were detected using chemiluminescence Western chemiluminescence reagents.
(§3) As described in Example 1, corneal stromal cells were isolated from rabbit corneas and cultured using the same procedures. The keratocytes in serum free media were treated with b-FGF (40 ng/ml)+HS (5 μg/ml) with or without 15 mM EP or 1, 2.5 or 5 mM following EP derivatives: 2-oxopropionic acid 3-methoxyphenyl ester, 2-oxopropionic acid 2-ethoxyethyl ester, 2-oxopropionic acid 2-chloroethyl ester, 2-oxopropionic acid isopropyl ester, 2-oxopropionic acid butyl ester, 2-oxopropionic acid p-tolyl ester, 2-oxopropionic acid tert-butyl ester. […] The relative levels of the expression of specific proteins were analyzed by Western blot analyses of the cell lysates as described supra.

[2] = test system: alpha-smooth muscle actin; assay: Western blot of TGF-β1 activated rabbit corneal keratocytes: alpha-smooth muscle actin; assay type: cell-based; conditions: TGF-β1 (10 ng/ml)+1% FBS, two days, compared to controls with no treatment
Protocol: as §1, §2, §3

| Compound | levels of type III collagen, tenascin and fibronectin (Western blot) [1] | alpha-smooth muscle actin levels (Western blot) [2] |
| --- | --- | --- |
| CC(=O)C(=O)OCCCl [2-oxopropionic acid 2-chloroethyl ester] | reduced levels | reduced expression; also recorded: reduced levels |
| CC(=O)C(=O)Oc1ccc(C)cc1 [2-oxopropionic acid p-tolyl ester] | reduced levels | reduced expression; also recorded: reduced levels |

From patent US8815946B2, “Inhibition of proliferation and fibrotic response of activated corneal stromal cells” (University of Pittsburgh—of the Commonwealth System of …, priority 2008, dated 2014)
